Source: patent US9499535B2, “Kinase inhibitors” (ORIGENIS GMBH, priority 2011, dated 2016)

Columns and labels:
[1] = target: MYLK (Homo sapiens, UniProt Q15746); assay: MYLK assay (LanthaScreen Eu Kinase Binding Assay); settings: 5 nM MYLK, 30 nM tracer 236, RT 1 h; read-out: MYLK Activites: IC50
Method: In the assay LanthaScreen™ Eu Kinase Binding Assay by Invitrogen Corporation (Carlsbad) the effect of invention of a compound on the phosphorylation is determined by measurement of fluorescence intensity emission ratio based on the binding and displacement of a proprietary, Alexa Fluor® 647-labeled, ATP-competitive kinase inhibitor scaffold (kinase tracer) to the kinase of interest as described above.
To the wells of an 384 well small volume plate (Greiner, Frickenhausen) are added (i) the compound under test in 5% DMSO/distilled water (5 μl), (ii) 5 μl of the kinase antibody mixture resulting in a final concentration 5 nM MYLK, 2 nM EU-Anti-GST antibody in 1× kinase buffer A. The reaction was started with addition of (iii) 5 μl resulting in a final concentration of 30 nM tracer 236. The assay plate was incubated at RT for 1 h and fluorescence intensitiy readings were collected using a TECAN M1000 at two wavelengthes of λex 340/λem 615 nm and λex 340/λem 665 nm with a delay time of 100 μs and an integration time of 200 μs after 60 minutes. The emission ratio was calculated by division of the acceptor/tracer emission ([…]) by the antibody/donor emission ([…]). The inhibitor concentration was plotted versus the emission ratio to determine the IC50 using XLFit 5.0 (IDBS, Guildford) to fit to a sigmoidal dose response curve with a variable slope.

[2] = target: T1, SYK kinase (Homo sapiens, UniProt P43405); assay: SYK assay (OMNIA Kinase Assay, Invitrogen); format: biochemical; settings: apparent Ki calculated from the IC50 using the Cheng-Prusoff equation; 1 mM ATP, 10 μM Peptide Substrate; read-out: SYK Activities: Ki
T1 construct: purchased Invitrogen, Carlsbad
How it was run: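 Reaction velocities were measured from kinetic fluorescence reads (360/485 nm, every 30 s over 30 min) of Mg2+-chelated SOX signal. Conditions were 1 mM ATP, 10 μM Omnia Tyr 7 peptide and 0.2 mM DTT at 30° C. Sigmoidal IC50 fits were converted to apparent Ki using Cheng-Prusoff.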

[3] = target: LRRK2 (Homo sapiens, UniProt Q5S007); assay: LRRK2 assay (LanthaScreen Eu Kinase Binding Assay); settings: 5 nM LRRK2, 10 nM tracer 236, RT 1 h; read-out: LRRK2 Activites: IC50
How it was run: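 IC50 was derived from a sigmoidal dose-response fit with variable slope, plotting emission ratio against inhibitor concentration. The read-out is loss of FRET between a europium-labelled anti-tag antibody on the kinase and a tracer displaced by inhibitor.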

Sequence of LRRK2 (Q5S007 970-2527 limits assumed): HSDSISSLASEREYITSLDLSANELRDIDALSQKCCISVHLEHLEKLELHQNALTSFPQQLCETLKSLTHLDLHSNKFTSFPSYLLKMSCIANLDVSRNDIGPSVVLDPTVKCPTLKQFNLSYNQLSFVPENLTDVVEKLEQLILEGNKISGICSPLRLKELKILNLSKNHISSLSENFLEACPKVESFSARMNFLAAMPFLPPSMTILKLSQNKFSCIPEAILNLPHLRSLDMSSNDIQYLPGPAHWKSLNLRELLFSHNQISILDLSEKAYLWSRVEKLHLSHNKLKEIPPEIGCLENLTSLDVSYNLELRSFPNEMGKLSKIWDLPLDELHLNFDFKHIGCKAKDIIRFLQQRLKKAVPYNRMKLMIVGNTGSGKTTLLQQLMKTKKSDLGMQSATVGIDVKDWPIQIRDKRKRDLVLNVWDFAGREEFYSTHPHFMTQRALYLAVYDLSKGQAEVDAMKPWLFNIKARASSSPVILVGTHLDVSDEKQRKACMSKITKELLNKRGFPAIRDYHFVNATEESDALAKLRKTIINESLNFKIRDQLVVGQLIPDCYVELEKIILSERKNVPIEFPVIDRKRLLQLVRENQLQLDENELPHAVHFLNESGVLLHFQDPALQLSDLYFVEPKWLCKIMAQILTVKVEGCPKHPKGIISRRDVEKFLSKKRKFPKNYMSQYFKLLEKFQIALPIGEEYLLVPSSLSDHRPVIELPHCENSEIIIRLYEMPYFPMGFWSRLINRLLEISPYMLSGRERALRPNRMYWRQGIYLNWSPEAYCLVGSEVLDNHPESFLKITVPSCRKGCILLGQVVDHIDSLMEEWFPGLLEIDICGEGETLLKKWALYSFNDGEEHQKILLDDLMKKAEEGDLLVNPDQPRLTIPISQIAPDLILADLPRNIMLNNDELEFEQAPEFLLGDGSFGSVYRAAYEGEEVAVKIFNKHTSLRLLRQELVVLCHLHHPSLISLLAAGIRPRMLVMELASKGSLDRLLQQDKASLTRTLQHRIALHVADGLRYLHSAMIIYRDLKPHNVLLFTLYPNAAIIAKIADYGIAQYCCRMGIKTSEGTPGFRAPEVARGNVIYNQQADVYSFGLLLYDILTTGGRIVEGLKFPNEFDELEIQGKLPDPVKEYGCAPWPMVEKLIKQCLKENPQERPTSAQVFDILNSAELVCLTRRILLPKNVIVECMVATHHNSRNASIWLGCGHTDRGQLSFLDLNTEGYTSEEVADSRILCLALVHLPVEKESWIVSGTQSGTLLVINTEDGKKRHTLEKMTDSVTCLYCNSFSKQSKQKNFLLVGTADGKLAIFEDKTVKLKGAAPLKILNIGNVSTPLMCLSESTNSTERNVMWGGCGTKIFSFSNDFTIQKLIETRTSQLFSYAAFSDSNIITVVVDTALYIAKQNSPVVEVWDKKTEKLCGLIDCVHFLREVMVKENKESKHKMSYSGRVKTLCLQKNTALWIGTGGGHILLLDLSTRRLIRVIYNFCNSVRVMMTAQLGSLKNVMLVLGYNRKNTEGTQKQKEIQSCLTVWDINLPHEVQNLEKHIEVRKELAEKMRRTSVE
Sequence of MYLK (Q15746 whole entry): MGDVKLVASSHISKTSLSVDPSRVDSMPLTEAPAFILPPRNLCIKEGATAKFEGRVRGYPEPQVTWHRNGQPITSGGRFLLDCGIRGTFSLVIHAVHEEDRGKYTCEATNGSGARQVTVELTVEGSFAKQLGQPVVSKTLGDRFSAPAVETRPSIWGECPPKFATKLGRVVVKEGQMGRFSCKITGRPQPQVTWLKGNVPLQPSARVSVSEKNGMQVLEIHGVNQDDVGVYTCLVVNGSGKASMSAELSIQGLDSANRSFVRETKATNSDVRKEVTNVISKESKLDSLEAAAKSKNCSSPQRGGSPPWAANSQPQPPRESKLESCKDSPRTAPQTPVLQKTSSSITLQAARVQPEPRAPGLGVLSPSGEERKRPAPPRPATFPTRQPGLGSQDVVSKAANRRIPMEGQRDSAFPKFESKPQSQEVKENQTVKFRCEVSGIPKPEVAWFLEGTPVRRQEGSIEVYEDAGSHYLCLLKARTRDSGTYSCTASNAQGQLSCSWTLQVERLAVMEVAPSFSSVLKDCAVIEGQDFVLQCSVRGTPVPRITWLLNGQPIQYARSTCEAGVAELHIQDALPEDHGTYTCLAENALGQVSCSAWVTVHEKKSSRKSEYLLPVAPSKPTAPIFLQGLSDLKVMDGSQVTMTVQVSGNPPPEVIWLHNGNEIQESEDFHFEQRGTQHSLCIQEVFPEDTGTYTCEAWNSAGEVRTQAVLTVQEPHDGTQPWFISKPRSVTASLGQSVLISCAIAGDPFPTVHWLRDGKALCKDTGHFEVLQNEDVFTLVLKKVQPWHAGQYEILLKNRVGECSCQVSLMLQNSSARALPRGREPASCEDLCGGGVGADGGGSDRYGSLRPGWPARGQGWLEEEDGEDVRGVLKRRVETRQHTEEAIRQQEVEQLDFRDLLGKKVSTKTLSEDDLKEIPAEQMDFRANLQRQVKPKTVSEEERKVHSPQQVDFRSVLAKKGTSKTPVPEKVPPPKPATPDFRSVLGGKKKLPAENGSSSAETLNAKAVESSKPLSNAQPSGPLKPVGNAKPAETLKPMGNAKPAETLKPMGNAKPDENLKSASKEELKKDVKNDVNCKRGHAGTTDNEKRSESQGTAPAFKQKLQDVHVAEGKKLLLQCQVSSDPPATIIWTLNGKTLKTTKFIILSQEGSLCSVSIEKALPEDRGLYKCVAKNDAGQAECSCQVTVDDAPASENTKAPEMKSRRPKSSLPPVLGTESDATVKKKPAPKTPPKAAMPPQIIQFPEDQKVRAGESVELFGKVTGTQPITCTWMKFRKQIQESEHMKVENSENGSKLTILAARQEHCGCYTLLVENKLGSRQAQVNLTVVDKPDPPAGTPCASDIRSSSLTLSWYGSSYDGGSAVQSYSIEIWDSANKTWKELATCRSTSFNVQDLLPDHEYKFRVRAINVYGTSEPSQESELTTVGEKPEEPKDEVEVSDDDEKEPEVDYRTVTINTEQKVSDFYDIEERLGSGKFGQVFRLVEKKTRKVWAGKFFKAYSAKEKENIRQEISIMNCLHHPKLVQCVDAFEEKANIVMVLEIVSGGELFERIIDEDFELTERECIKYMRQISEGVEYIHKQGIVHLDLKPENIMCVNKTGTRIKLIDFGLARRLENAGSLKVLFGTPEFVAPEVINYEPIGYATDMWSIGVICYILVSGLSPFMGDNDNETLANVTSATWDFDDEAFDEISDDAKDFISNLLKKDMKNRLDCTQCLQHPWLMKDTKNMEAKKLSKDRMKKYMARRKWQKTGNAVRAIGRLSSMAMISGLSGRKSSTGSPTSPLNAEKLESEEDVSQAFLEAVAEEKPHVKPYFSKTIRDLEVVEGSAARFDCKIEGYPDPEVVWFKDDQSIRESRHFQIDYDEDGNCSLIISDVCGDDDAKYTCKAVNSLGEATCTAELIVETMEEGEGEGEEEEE

| IC50 [1] [nM] | Ki [2] [nM] | IC50 [3] [nM] | Compound |
| --- | --- | --- | --- |
| < 5000 | – | – | COc1ccc2nc(Nc3ccc(F)cc3F)c3n[nH]cc3c2c1 [Example #360, N-(2,4-difluorophenyl)-8-methoxy-2H-pyrazolo[3,4-c]quinolin-4-amine] |
| < 5000 | < 10 | – | COc1ccc2c(c1)nc(Nc1ccc3[nH]cnc3c1)c1n[nH]cc12 [Example #263, (1H-Benzoimidazol-5-yl)-(7-methoxy-2H-pyrazolo[3,4-c]quinolin-4-yl)-amine] |
| < 5000 | < 10 | – | COc1ccc2nc(Nc3ccc4c(c3)NC(=O)CO4)c3[nH]ncc3c2c1 [Example #291, 6-((8-methoxy-2H-pyrazolo[3,4-c]quinolin-4-yl)amino)-2H-benzo[b][1,4]oxazin-3(4H)-one] |
| < 5000 | < 10 | – | COc1ccc2nc(Nc3ccc(N4CCS(=O)(=O)CC4)cc3)c3n[nH]cc3c2c1 [Example #292, 4-(4-((8-methoxy-2H-pyrazolo[3,4-c]quinolin-4-yl)amino)phenyl)thiomorpholine 1,1-dioxide] |
| < 5000 | 100 to 1000 | – | COc1ccc2nc(Nc3cccc(S(=O)(=O)N4CCOCC4)c3)c3n[nH]cc3c2c1 [Example #349, 8-methoxy-N-(3-(morpholinosulfonyl)phenyl)-2H-pyrazolo[3,4-c]quinolin-4-amine] |
| < 5000 | 10 to 100 | – | Cc1cc(Nc2nc3ccc(Br)cc3c3c[nH]nc23)cc2cn[nH]c12 [Example #41, (8-Bromo-2H-pyrazolo[3,4-c]quinolin-4-yl)-(7-methyl-1H-indazol-5-yl)-amine] |
| < 5000 | 100 to 1000 | – | COc1cc(Nc2nc3ccc(OC)cc3c3c[nH]nc23)cc(OC)c1 [Example #341, N-(3,5-dimethoxyphenyl)-8-methoxy-2H-pyrazolo[3,4-c]quinolin-4-amine] |
| < 5000 | 100 to 1000 | – | COc1ccc(Nc2nc3ccc(I)cc3c3cn[nH]c23)cc1OC [Example #354, N-(3,4-dimethoxyphenyl)-8-iodo-3H-pyrazolo[3,4-c]quinolin-4-amine] |
| < 5000 | 100 to 1000 | – | COc1ccc2nc(Nc3cccc(C(=O)O)c3)c3n[nH]cc3c2c1 [Example #287, 3-((8-methoxy-2H-pyrazolo[3,4-c]quinolin-4-yl)amino)benzoic acid] |
| < 5000 | 100 to 1000 | – | COc1ccc2nc(Nc3cccc(S(=O)(=O)C(F)(F)F)c3)c3n[nH]cc3c2c1 [Example #350, 8-methoxy-N-(3-((trifluoromethyl)sulfonyl)phenyl)-2H-pyrazolo[3,4-c]quinolin-4-amine] |
| < 5000 | 10 to 100 | – | CN1CCN(c2ccc(Nc3nc4cc(F)ccc4c4cn[nH]c34)cc2)CC1 [Example #337, 7-fluoro-N-(4-(4-methylpiperazin-1-yl)phenyl)-3H-pyrazolo[3,4-c]quinolin-4-amine] |
| < 5000 | – | – | O=C(c1ccc(Nc2nc3ccc(F)cc3c3cn[nH]c23)cc1)N1CCCC1 [Example #322, (4-((8-fluoro-3H-pyrazolo[3,4-c]quinolin-4-yl)amino)phenyl) (pyrrolidin-1-yl)methanone] |
| < 5000 | < 10 | – | COc1cccc2c1nc(Nc1ccc(CN(C)C)cc1)c1n[nH]cc12 [Example #233, (4-Dimethylaminomethyl-phenyl)-(6-methoxy-2H-pyrazolo[3,4-c]quinolin-4-yl)-amine] |
| < 5000 | 100 to 1000 | – | COc1ccc2nc(Nc3nccc(N)n3)c3n[nH]cc3c2c1 [Example #139, N2-(8-methoxy-2H-pyrazolo[3,4-c]quinolin-4-yl)pyrimidine-2,4-diamine] |
| < 5000 | – | – | O=C1COc2ccc(Nc3nc4ccc(Br)cc4c4c[nH]nc34)cc2N1 [Example #116, 6-(8-Bromo-2H-pyrazolo[3,4-c]quinolin-4-ylamino)-4H-benzo[1,4]oxazin-3-one] |
| – | 100 to 1000 | 100 to 1000 | COc1ccc2nc(Nc3cccc(C)c3)c3n[nH]cc3c2c1 [Example #37, (8-Methoxy-2H-pyrazolo[3,4-c]quinolin-4-yl)-m-tolyl-amine] |
| – | 10 to 100 | 100 to 1000 | COc1ccc2nc(Nc3ccc(N4CCOCC4)c(F)c3)c3n[nH]cc3c2c1 [Example #181, (3-Fluoro-4-morpholin-4-yl-phenyl)-(8-methoxy-2H-pyrazolo[3,4-c]quinolin-4-yl)-amine] |

| IC50 [1] [nM] | Ki [2] [nM] | IC50 [3] [nM] | Compound |
| --- | --- | --- | --- |
| – | 100 to 1000 | 100 to 1000 | COc1ccc2nc(Nc3ccc(C#N)cc3)c3n[nH]cc3c2c1 [Example #59, 4-(8-Methoxy-2H-pyrazolo[3,4-c]quinolin-4-ylamino)-benzonitrile] |
| – | 10 to 100 | < 10 | COc1ccc2nc(Nc3ccc(C(=O)N4CCC4)cc3)c3n[nH]cc3c2c1 [Example #302, azetidin-1-yl(4-((8-methoxy-2H-pyrazolo[3,4-c]quinolin-4-yl)amino)phenyl)methanone] |
| – | 100 to 1000 | 10 to 100 | COc1cccc2nc(Nc3ccc4c(c3)NCCO4)c3n[nH]cc3c12 [Example #198, (3,4-Dihydro-2H-benzo[1,4]oxazin-6-yl)-(9-methoxy-2H-pyrazolo[3,4-c]quinolin-4-yl)-amine] |
| – | 10 to 100 | 100 to 1000 | COc1ccc2nc(Nc3ccc4c(c3)OCC(=O)N4)c3[nH]ncc3c2c1 [Example #224, 7-(8-Methoxy-3H-pyrazolo[3,4-c]quinolin-4-ylamino)-4H-benzo[1,4]oxazin-3-one] |
| – | 10 to 100 | 100 to 1000 | COc1cc2nc(Nc3ccc4c(c3)NCCO4)c3n[nH]cc3c2cc1OC [Example #151, (3,4-Dihydro-2H-benzo[1,4]oxazin-6-yl)-(7,8-dimethoxy-2H-pyrazolo[3,4-c]quinolin-4-yl)-amine] |
| – | 100 to 1000 | 100 to 1000 | CCOc1ccc(Nc2nc3ccc(OC)cc3c3cn[nH]c23)cc1OCC [Example #114, (3,4-Diethoxy-phenyl)-(8-methoxy-3H-pyrazolo[3,4-c]quinolin-4-yl)-amine] |
| – | 10 to 100 | 100 to 1000 | COc1ccc2nc(Nc3ccc4c(c3)OCO4)c3n[nH]cc3c2c1 [Example #100, Benzo[1,3]dioxol-5-yl-(8-methoxy-2H-pyrazolo[3,4-c]quinolin-4-yl)-amine] |
| – | 100 to 1000 | 100 to 1000 | COc1ccc2nc(Nc3ccc4[nH]c(=O)oc(=O)c4c3)c3n[nH]cc3c2c1 [Example #117, 6-(8-Methoxy-2H-pyrazolo[3,4-c]quinolin-4-ylamino)-1H-benzo[d][1,3]oxazine-2,4-dione] |
| – | < 10 | 10 to 100 | COc1ccc2nc(Nc3cc(C4CC4)[nH]n3)c3[nH]ncc3c2c1 [Example #97, (5-Cyclopropyl-1H-pyrazol-3-yl)-(8-methoxy-3H-pyrazolo[3,4-c]quinolin-4-yl)-amine] |
| – | 10 to 100 | 100 to 1000 | Brc1ccc2nc(Nc3ccc(N4CCOCC4)cc3)c3n[nH]cc3c2c1 [Example #115, (8-Bromo-2H-pyrazolo[3,4-c]quinolin-4-yl)-(4-morpholin-4-yl-phenyl)-amine] |
| – | < 10 | 10 to 100 | COc1ccc2nc(Nc3ccc(N4CCSCC4)cc3)c3[nH]ncc3c2c1 [Example #293, 8-methoxy-N-(4-thiomorpholinophenyl)-2H-pyrazolo[3,4-c]quinolin-4-amine] |
| – | < 10 | 100 to 1000 | CS(=O)(=O)c1cccc(Nc2nc3cccc(F)c3c3cn[nH]c23)c1 [Example #362, 9-fluoro-N-(3-(methylsulfonyl)phenyl)-3H-pyrazolo[3,4-c]quinolin-4-amine] |
| – | 10 to 100 | 100 to 1000 | CCOc1cc2nc(Nc3ccc4cn[nH]c4c3)c3n[nH]cc3c2cc1OCC [Example #92, (7,8-Diethoxy-2H-pyrazolo[3,4-c]quinolin-4-yl)-(1H-indazol-6-yl)-amine] |
| – | 10 to 100 | 100 to 1000 | COc1cccc2c1nc(Nc1ccc3c(c1)NCCO3)c1n[nH]cc12 [Example #168, (3,4-Dihydro-2H-benzo[1,4]oxazin-6-yl)-(6-methoxy-2H-pyrazolo[3,4-c]quinolin-4-yl)-amine] |
| – | 10 to 100 | 100 to 1000 | COc1cccc2c1nc(Nc1ccc(C)cc1)c1n[nH]cc12 [Example #274, (6-Methoxy-2H-pyrazolo[3,4-c]quinolin-4-yl)-p-tolyl-amine] |
| – | 10 to 100 | 100 to 1000 | COc1ccc2nc(Nc3ccc(N4CCCCC4)cc3)c3n[nH]cc3c2c1 [Example #50, (8-Methoxy-2H-pyrazolo[3,4-c]quinolin-4-yl)-(4-piperidin-1-yl-phenyl)-amine] |
| – | 100 to 1000 | 100 to 1000 | COc1ccc2nc(Nc3cccc(N4CCOCC4)c3)c3[nH]ncc3c2c1 [Example #81, (8-Methoxy-3H-pyrazolo[3,4-c]quinolin-4-yl)-(3-morpholin-4-yl-phenyl)-amine] |
